Inhibition data for three molecules are collected here from US20220009920A1 (GB005, Inc., priority 2020, published 2022).

SMILES strings stand for the structures.

Broadly, the inhibition is the change of the read-out against control, counted positive when it falls.

Test in all cases: Large panel kinase profiling
Assay type in all cases: biochemical
Details in all cases: 1 μM test article, 1 mM ATP

One assay concerns the target CAMK2A (Homo sapiens, UniProt Q9UQM7). In short, it runs like this: (§1)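 CSox-Sensor fluorescence readout; test article 1 μM, ATP 1 mM, 30° C.; kinetic reads at 1-min intervals, Ex 360/Em 485 nm.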
In a further assay the target is T1, DDR2 (Homo sapiens, UniProt Q16832).
T1 construct: AssayQuant Technologies, Inc. (service laboratory)
T1 sequence (Q16832 22-855): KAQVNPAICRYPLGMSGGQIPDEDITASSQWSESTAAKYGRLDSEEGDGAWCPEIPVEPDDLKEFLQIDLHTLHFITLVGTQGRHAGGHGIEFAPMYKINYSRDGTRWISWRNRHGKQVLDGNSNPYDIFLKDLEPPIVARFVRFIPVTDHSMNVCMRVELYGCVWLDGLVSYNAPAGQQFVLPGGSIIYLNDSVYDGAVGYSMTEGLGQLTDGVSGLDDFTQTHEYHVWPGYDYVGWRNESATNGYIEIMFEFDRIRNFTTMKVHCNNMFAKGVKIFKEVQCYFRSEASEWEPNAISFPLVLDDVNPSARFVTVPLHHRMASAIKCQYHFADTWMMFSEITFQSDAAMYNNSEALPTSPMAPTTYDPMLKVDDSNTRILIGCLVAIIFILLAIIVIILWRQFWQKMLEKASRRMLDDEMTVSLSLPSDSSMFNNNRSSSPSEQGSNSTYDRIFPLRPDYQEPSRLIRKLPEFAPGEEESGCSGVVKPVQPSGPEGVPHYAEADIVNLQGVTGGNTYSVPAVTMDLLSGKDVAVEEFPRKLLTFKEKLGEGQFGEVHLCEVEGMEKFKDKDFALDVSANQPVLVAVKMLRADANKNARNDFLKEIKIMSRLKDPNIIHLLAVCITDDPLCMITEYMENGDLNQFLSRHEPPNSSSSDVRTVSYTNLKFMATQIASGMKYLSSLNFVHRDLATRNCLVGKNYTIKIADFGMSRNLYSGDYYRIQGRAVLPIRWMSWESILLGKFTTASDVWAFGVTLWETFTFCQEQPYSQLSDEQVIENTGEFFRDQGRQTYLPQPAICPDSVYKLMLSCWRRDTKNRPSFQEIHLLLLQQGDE
In short, it runs like this: as §1

The target in a further assay is EPHA2 (Homo sapiens, UniProt P29317). In short, it runs like this:
as §1

For a further assay, the target named is EPHA7 (Homo sapiens, UniProt Q15375). In short, it runs like this:
as §1

A further assay deals with T2, MAP3K7 (Homo sapiens, UniProt O43318).
T2 construct: AssayQuant Technologies, Inc. (service provider)
T2 sequence (O43318 1-303 limits assumed): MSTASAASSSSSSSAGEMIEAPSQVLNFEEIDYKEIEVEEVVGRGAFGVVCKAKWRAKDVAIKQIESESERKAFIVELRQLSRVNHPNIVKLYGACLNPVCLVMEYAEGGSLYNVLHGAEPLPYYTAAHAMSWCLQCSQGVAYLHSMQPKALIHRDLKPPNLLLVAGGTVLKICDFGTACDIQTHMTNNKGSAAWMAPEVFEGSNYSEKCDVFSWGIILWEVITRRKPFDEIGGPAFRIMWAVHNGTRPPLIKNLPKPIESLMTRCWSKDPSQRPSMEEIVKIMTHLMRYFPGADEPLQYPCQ
In short, it runs like this: as §1

The target in a further assay is T3, MYLK/MLCK (Homo sapiens, UniProt Q15746).
T3 construct: AssayQuant Technologies, Inc. (assay service)
In short, it runs like this: as §1

A further assay deals with T4, MYLK4 (Homo sapiens, UniProt Q86YV6).
T4 construct: AssayQuant Technologies, Inc. (assay service)
T4 sequence (Q86YV6 1-388): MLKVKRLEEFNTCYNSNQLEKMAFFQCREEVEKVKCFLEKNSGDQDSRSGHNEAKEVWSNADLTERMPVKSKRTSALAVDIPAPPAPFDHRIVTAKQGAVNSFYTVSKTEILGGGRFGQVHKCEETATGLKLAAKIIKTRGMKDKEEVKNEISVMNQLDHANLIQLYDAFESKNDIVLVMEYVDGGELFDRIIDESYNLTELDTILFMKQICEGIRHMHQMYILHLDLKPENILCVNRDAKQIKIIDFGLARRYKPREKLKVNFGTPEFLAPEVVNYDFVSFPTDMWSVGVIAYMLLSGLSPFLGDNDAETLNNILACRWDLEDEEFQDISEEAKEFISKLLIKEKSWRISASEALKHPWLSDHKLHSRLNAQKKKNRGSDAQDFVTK
In short, it runs like this:
as §1

The next assay addresses PASK (Homo sapiens, UniProt Q96RG2). In short, it runs like this:
as §1

A further assay has as its target PIM1 (Homo sapiens, UniProt P11309). In short, it runs like this: as §1
In a further assay the target is PRKACB (Homo sapiens, UniProt P22694). In short, it runs like this:
as §1

The target in a further assay is T5, SLK (Homo sapiens, UniProt Q9H2G2).
T5 construct: AssayQuant Technologies, Inc. (contract assay)
In short, it runs like this: as §1

The next assay concerns the target T6, STK10/LOK (Homo sapiens, UniProt O94804).
T6 construct: AssayQuant Technologies, Inc. (contract assay)
In short, it runs like this: as §1

Chain of CAMK2A (Q9UQM7 whole entry): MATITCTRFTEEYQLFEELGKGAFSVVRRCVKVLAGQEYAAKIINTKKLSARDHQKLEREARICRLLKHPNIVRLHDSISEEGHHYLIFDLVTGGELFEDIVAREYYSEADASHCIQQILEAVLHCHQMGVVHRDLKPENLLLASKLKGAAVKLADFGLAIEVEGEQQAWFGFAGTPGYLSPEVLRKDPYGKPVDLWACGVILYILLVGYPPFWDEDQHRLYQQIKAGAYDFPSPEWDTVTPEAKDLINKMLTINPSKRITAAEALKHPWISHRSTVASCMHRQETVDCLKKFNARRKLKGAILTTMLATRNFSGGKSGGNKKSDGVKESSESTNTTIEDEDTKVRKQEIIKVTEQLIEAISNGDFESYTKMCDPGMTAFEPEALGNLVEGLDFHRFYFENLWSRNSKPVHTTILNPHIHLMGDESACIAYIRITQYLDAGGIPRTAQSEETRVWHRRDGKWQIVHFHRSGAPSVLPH
Chain of EPHA7 (Q15375 28-998, species assumed): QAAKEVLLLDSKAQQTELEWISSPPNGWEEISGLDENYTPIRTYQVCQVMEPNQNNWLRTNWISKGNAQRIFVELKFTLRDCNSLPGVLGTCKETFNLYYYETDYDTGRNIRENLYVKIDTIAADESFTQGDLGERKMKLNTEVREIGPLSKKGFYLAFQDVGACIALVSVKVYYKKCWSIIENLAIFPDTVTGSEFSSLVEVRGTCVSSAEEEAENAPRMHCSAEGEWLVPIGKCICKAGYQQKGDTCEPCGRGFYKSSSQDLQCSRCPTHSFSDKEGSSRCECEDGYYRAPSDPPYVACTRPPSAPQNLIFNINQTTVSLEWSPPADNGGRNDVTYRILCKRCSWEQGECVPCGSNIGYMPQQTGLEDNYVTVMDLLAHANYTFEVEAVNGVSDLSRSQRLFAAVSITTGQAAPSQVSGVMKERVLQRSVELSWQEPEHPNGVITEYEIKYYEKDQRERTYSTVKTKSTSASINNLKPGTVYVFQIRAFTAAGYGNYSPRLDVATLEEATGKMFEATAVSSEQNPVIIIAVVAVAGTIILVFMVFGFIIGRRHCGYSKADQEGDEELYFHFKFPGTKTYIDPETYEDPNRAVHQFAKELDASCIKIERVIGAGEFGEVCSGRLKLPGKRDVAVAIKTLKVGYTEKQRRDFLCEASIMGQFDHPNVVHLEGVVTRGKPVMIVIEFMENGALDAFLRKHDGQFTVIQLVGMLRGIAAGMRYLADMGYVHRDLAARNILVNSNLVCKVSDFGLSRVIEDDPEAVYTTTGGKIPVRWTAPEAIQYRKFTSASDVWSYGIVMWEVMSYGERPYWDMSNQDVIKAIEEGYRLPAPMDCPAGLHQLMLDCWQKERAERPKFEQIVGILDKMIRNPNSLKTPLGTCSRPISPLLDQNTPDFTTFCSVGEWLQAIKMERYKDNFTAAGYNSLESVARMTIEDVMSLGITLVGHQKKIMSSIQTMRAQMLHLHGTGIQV
Chain of PIM1 (P11309 whole entry, species assumed): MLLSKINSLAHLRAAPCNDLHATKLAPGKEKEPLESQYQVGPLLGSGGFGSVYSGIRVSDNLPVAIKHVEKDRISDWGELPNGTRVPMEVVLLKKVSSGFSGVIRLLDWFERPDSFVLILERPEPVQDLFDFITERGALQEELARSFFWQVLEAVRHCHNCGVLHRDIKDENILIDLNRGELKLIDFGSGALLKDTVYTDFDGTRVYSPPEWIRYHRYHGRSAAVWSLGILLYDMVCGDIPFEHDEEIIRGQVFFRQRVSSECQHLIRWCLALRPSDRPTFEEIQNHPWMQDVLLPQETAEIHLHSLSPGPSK
T6 sequence (O94804 whole entry): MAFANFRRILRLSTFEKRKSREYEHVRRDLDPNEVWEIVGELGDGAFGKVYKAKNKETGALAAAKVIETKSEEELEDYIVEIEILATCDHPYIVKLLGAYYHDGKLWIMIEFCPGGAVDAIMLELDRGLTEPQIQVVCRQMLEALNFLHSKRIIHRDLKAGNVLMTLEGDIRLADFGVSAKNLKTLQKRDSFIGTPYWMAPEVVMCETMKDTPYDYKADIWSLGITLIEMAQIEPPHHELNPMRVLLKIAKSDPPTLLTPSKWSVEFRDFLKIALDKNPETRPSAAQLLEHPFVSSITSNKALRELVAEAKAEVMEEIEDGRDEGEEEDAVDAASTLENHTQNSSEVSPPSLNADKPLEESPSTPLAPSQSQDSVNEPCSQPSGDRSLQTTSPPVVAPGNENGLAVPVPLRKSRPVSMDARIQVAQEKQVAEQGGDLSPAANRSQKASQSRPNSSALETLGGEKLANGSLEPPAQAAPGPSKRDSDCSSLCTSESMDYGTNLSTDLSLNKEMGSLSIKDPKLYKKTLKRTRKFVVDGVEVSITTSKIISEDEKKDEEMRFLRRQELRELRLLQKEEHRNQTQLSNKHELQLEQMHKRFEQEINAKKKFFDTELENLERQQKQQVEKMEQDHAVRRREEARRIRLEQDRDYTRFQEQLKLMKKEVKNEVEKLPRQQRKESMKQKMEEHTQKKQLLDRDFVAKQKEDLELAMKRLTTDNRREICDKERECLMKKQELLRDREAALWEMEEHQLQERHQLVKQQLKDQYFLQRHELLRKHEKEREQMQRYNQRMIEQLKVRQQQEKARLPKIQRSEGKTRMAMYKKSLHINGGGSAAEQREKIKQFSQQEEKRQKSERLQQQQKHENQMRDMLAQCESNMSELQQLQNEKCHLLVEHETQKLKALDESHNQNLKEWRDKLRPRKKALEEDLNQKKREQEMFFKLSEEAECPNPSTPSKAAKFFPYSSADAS
T5 sequence (Q9H2G2 whole entry): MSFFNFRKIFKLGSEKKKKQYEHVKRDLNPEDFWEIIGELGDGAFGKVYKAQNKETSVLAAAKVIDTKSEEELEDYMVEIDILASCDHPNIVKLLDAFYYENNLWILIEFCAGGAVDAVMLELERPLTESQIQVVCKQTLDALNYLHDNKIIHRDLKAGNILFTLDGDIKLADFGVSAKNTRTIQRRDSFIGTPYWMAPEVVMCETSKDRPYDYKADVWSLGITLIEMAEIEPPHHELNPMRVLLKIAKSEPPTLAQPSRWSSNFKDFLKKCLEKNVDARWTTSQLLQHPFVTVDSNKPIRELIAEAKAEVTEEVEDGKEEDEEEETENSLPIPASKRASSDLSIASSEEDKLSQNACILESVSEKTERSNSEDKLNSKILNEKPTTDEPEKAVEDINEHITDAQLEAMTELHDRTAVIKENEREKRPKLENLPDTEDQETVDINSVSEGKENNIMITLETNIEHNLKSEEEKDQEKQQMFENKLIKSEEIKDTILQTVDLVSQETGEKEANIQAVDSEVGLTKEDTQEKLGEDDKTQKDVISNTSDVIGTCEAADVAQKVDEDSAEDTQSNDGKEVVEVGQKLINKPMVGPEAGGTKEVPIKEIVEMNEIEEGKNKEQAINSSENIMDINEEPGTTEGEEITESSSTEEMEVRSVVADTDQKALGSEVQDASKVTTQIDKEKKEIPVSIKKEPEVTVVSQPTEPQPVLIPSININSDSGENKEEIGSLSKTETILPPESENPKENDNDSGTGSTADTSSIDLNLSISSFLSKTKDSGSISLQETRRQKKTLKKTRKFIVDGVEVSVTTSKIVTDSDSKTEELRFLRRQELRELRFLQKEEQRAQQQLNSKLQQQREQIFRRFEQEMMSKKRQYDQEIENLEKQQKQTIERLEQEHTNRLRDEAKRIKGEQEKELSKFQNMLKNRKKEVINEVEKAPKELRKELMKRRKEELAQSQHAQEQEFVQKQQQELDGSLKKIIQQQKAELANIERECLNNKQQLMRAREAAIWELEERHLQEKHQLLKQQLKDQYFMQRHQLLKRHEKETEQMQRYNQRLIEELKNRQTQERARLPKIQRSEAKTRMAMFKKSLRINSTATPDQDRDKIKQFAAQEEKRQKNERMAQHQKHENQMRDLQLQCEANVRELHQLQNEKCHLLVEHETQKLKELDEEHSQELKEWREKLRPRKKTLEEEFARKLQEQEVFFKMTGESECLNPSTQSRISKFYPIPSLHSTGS
Chain of EPHA2 (P29317 24-976, species assumed): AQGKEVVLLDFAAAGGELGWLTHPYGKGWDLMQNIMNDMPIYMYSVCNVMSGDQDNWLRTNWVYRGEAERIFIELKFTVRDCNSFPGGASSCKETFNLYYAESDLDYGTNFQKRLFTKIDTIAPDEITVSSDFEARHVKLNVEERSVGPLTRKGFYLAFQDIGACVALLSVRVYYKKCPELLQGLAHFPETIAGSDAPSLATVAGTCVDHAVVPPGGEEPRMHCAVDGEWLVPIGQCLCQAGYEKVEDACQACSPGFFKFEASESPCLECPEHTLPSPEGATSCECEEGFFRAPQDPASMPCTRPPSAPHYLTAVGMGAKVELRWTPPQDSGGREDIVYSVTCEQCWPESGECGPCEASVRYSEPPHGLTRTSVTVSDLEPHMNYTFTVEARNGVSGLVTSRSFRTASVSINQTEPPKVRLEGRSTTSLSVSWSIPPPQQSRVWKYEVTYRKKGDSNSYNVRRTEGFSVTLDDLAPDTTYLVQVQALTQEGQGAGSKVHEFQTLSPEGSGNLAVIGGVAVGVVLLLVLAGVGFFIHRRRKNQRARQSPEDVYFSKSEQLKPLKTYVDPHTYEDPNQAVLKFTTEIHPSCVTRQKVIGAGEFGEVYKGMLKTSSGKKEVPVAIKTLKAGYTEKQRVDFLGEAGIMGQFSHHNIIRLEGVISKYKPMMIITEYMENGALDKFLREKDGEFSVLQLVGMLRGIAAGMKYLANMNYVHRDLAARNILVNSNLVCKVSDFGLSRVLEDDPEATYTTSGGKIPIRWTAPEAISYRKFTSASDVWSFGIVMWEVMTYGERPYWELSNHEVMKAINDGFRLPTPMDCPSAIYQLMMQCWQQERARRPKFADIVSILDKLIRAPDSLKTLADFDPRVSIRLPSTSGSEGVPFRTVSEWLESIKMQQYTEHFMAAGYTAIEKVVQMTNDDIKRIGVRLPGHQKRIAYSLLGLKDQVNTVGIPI

As to `C=CC(=O)N1CCC[C@@H](c2c(F)cc(C(N)=O)c3[nH]c4c(c23)CCC4)C1` [Compound 10-2, (S)-8-(1-acryloylpiperidin-3-yl)-7-fluoro-1,2,3,4-tetrahydrocyclo-penta[b]indole-5-carboxamide], the inhibition at 1 µM against CAMK2A was 14.7%; on DDR2, -26.7%; against EPHA2, -9.6%; against EPHA7, -4.7%; against MAP3K7, 13.2%; against MYLK/MLCK, -27.4%. Besides, the inhibition at 1 µM against MYLK4 is -21.1%; at PASK, -8.5%; against PIM1 it was -7.1%; against PRKACB, 1.6%; at SLK, -48.3%; against STK10/LOK, -8.7%.

With `C=CC(=O)N1CCCC(c2c(F)cc(C(N)=O)c3[nH]c4c(c23)CCCCC4)C1` (single isomer, unassigned) [Compound 5-6], the inhibition at 1 µM on CAMK2A is 4.9%; at DDR2, -6.5%; at EPHA2, -1.9%; against EPHA7, -0.1%; on MAP3K7 it was -19.6%; against MYLK/MLCK, 19.7%. Moreover, the inhibition at 1 µM was 29.7% against MYLK4; 1.8% on PASK; 7% on PIM1; 10.6% at PRKACB; -3.7% at SLK; 3.1% at STK10/LOK.

For `C=CC(=O)N1CCC[C@@H](c2c(F)cc(C(N)=O)c3[nH]c4c(c23)CC2(CC4)CC2)C1` [Compound 6-2, (S)-5-(1-acryloylpiperidin-3-yl)-6-fluoro-1,2,4,9-tetrahydrospiro[carbazole-3,1′-cyclopropane]-8-carboxamide], the inhibition at 1 µM on CAMK2A was 35.8%; against DDR2 it was -15.9%; at EPHA2 it was 9.5%; against EPHA7, 5.1%; against MAP3K7 it was 10%; against MYLK/MLCK, -24%. Further, the inhibition at 1 µM is -30.5% against MYLK4; -8% at PASK; -43% against PIM1; 13.2% on PRKACB; 8.9% against SLK; 12.2% against STK10/LOK.
